Source: patent publication US10662194B2, “Substituted 6-anilino-9-heterocyclylpurine derivatives for inhibition of plant stress” (UNIVERZITA PALACKEHO V OLOMOUCI, priority 2014, dated 2020)
Where two headings read alike, the source gives them in different places.

Experiments:
[1] = tested on: wild-type Arabidopsis plants; test: In vitro root growth of wild-type Arabidopsis plants; assay type: in vivo; conditions: 0.1 μM in MS medium, FIG. 6
Experimental: As shown in previous example presence of compound 12 in the growth medium has positive effect on the root growth of cytokinin-deficient Arabidopsis plants. This effect was further studied using wild-type Arabidopsis plants and compared with biologically and structurally relevant compounds, a cytokinin BAP and a CKX inhibitor INCYDE. […] Arabidopsis seedlings were grown in vitro on a standard MS medium containing 0.1 μM cytokinin BAP, the same concentration of compound 12 and the same concentration of CKX inhibitor INCYDE (2-chloro-6-(3-methoxyanilino)purine).

[2] = tested on: CKX1 overproducing (35S:CKX1) Arabidopsis seedlings; test: In vitro shoot and root growth of cytokinin deficient Arabidopsis plants; assay type: in vivo; conditions: for complementation of wild type shoot phenotype: 0.1 μM in MS medium, FIG. 3, 4
Text: Constitutive overexpression of CKX in 35S:CKX1 plants leads to enhanced root growth. If CKX inhibitor can restore WT phenotype, it is expected that inhibition of the CKX activity in 35S:AtCKX1 plants should thus have no effect or inhibit their root growth. Such observation was done in case of INCYDE, but not compound 12.

[3] = molecular target: T1, recombinant AtCKX2 (Arabidopsis thaliana, UniProt Q9FUJ3); test: Inhibition of cytokinin oxidase/dehydrogenase activity (PMS/MTT microtitre assay); assay type: biochemical
T1 construct: made in house; host or cells: S. cerevisiae strain 23344c ura-
T1 sequence (Q9FUJ3 23-501): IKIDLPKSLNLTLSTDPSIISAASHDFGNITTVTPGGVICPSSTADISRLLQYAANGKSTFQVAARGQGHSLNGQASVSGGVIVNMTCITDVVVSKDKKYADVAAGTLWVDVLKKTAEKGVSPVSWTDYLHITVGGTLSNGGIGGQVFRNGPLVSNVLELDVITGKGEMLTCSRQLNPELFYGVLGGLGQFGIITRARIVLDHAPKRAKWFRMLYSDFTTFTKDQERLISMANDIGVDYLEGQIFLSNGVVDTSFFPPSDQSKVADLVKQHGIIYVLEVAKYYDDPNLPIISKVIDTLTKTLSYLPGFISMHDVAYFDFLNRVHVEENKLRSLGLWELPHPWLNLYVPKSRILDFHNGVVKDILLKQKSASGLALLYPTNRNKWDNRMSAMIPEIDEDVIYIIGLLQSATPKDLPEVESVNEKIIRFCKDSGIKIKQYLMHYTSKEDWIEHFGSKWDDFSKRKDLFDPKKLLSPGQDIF
Experimental: IC50 measurements were done using the assay in microtitre plate. Each well contained 100 μL of PMS/MTT [phenazine methosulfate/3-(4,5-dimethylthiazol-2-yl)-2,5-diphenyltetrazolium bromide] reaction mixture (final concentrations: 0.1 M KH2PO4, pH 7.4, 1 mM MTT, 0.2 mM PMS) containing the tested compound (3×10^−7 M-3×10^−4 M) and 30 μM N^6-isopentenyladenine (iP) as a substrate. 100 μL of cell-free growth medium of S. cerevisiae strain 23344c ura^− harboring the plasmid pYES2-AtCKX2 was directly used as a source of AtCKX2. Plates were incubated in the dark for 30 min at 37° C. and the enzymatic reaction was stopped by 25 μL of 35% acetic acid. The absorbance at 578 nm was measured using spectrophotometer Tecan. Absorbance of the sample without iP was subtracted.
The IC50 value, the compound concentration that inhibits the enzyme activity to 50%, was calculated from the obtained dose response curves. The values shown in Table 7 are means of three replicates and the entire test was repeated at least twice. […] Compound 12 is an effective inhibitor of AtCKX2 activity, app. 3-times stronger that thidiazuron and only app. 3-times weaker than the structurally related compound INCYDE (2-chloro-6-(3-methoxyanilino)purine).

[4] = tested on: ARR5:GUS reporter gene; test: Induction of cytokinin reporter ARR5:GUS in transgenic Arabidopsis plants; assay type: in vivo; conditions: 0.01-10 μM, 17 h, FIG. 2
Experimental: Cytokinins induce in Arabidopsis transcription of gene ARR5, a member of A-type response regulator family classified as cytokinin primary response genes being expressed down-stream of sensing by cytokinin receptors. We cultivated transgenic Arabidopsis plants harbouring PARR5::GUS reporter (D'Agostino et al. Plant Physiol. 124: 1706-1717, 2000) in MS medium containing cytokinin BAP, CKX inhibitor INCYDE and novel compounds 12 and 91 in concentrations 0.01, 0.1, 1, 5, 10 μM; DMSO (0.1%) was tested as solvent control. Seeds were surface-sterilized in 70% ethanol and then placed into wells of 6-well microtiter plate (TPP, Switzerland) containing 3 mL of MS medium in each well. After sowing plates were pretreated in dark at 4° C. to synchronize the germination of the seeds. […] Quantitative estimation of the level of ARR5:GUS gene induction was done according to method published by Romanov et al. (Romanov et al. FEBS Letters 515: 39-43, 2002). After extraction of proteins the GUS activity was determined using incubation with fluorogenic substrate MUG (4-methylumbelliferyl glucuronid; 1 h, 37° C.) and then fluorescence 365 nm and 460 nm (excitation and emission wavelengths) was recorded, as described in detail by Spíchal et al. (Spíchal et al. Plant and Cell Physiology 45: 1299-1305, 2004).

[5] = molecular target: T2, CRE1/AHK4 (Arabidopsis thaliana, UniProt Q9C5U0); test: Escherichia coli cytokinin receptor activation assay (CRE1/AHK4); assay type: cell-based; conditions: 10^−7 M-5×10^−5 M, compared to trans-zeatin, FIG. 1
T2 construct: expressed in transfected cells; host or cells: Escherichia coli strain KMI001
Experimental: (§1) Escherichia coli strains KMI001 harbouring the plasmid pIN-III-AHK4 or pSTV28-AHK3 were grown overnight at 25° C. in M9 media enriched with 0.1% casamino acids to OD600˜1. The preculture was diluted 1:600 in 1 ml M9 medium containing 0.1% casamino acids and 1 μL stock solution of either the tested compound (10^−7 M-5×10^−5 M) or solvent control (DMSO, ethanol, methanol) were added. The cultures were further grown at 25° C. in microtiter plate, 200 μL per well. […] The cultures were centrifuged and 50 μL aliquots of the supernatant were transferred to microtiter plate containing 2 μL 50 mM 4-methyl umbelliferyl galactoside which was subsequently incubated for 1 h at 37° C. The reaction was stopped by adding 100 μL 0.2 M Na2CO3. Fluorescence was measured using a Fluoroscan Ascent (Labsystems, Finland) at the excitation and emission wavelengths of 365 and 460 nm, respectively. The OD600 of remaining culture was determined and β-galactosidase activity was calculated as nmol 4-methylumbelliferone×OD600^−1×h^−1.

[6] = molecular target: T3, AHK3 (Arabidopsis thaliana, UniProt Q9C5U1); test: Escherichia coli cytokinin receptor activation assay (AHK3); assay type: cell-based; conditions: 10^−7 M-5×10^−5 M, compared to trans-zeatin, FIG. 1
T3 construct: expressed in transfected cells; host or cells: Escherichia coli strain KMI001
T3 sequence (Q9C5U1 1-1036): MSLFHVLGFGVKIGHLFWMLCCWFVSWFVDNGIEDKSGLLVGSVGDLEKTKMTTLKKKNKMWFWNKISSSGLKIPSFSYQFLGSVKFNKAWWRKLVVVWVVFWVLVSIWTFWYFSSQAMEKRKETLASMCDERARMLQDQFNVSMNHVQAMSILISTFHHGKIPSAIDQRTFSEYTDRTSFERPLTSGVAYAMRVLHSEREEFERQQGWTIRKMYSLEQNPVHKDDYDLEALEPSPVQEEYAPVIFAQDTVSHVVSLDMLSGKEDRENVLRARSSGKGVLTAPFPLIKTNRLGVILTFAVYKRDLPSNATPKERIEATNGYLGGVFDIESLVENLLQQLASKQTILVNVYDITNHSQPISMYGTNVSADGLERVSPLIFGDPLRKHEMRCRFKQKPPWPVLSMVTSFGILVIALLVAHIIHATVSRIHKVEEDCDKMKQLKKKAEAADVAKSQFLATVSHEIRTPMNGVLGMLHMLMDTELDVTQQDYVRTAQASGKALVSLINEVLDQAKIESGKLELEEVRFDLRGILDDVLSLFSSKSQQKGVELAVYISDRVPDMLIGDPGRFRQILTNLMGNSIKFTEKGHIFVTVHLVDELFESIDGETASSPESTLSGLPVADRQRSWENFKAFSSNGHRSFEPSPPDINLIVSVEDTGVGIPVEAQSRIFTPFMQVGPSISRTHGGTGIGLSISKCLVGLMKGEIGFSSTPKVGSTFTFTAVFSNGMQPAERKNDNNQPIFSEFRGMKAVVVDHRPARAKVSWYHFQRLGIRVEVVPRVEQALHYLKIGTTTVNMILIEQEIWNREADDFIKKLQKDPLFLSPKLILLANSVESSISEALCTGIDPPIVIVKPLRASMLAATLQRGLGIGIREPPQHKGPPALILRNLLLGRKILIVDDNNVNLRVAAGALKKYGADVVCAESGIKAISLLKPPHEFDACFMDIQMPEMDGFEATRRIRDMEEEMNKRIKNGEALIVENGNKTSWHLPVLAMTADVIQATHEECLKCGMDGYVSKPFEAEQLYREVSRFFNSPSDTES
Experimental: as §1

[7] = 30 μM iP substrate, 30 min, 37° C., read-out: IC50

T2 sequence (Q9C5U0 whole entry): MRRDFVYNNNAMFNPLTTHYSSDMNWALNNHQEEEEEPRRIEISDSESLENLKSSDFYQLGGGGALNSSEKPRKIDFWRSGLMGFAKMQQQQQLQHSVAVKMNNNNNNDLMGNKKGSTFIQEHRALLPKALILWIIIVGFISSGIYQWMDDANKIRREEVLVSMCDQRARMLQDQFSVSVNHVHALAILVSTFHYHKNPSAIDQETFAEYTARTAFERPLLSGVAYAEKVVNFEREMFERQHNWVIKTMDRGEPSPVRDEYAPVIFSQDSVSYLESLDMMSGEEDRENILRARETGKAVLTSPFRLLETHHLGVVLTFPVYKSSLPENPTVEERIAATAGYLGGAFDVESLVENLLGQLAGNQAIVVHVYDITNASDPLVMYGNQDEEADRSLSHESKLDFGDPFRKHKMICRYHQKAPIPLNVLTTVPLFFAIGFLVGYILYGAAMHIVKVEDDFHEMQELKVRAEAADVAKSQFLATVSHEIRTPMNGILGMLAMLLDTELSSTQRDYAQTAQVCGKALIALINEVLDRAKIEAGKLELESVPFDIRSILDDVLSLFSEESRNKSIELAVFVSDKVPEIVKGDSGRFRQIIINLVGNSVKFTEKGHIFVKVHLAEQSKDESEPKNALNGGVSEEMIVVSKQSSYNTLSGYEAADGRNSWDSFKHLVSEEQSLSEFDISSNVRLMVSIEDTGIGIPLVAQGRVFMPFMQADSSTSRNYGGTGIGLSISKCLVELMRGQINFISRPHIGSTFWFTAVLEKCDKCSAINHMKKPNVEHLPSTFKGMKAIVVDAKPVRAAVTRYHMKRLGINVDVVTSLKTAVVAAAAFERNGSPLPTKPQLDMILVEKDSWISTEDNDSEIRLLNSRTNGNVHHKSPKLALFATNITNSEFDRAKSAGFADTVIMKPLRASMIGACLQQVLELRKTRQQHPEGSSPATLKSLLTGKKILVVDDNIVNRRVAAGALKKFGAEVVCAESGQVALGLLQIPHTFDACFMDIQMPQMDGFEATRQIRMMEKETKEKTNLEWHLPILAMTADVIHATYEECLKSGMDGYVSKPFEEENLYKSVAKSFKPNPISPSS

SMILES	root growth [1]	complementation of wild type shoot phenotype [2]	IC50 [3, 7]	other results
c1ccc(CNc2ncnc3nc[nH]c23)cc1 [BAP, 6-benzylaminopurine]	inhibited root growth	cannot be reached	–	–
COc1cccc(Nc2nc(Cl)nc3nc[nH]c23)c1 [INCYDE, 2-chloro-6-(3-methoxyanilino)purine]	inhibited root growth	led to restauration of wild type shoot phenotype	6.7 µM	root biomass of 35S:CKX1 plants ([2]; tested concentration range, FIG. 5): did not influence the root biomass
COc1cccc(Nc2nc(F)nc3[nH]cnc23)c1 [INCYDE-F, 2-fluoro-6-(3-methoxyanilino)purine, reference compound]	–	–	5.2 µM	–
COc1cccc(Nc2nc(F)nc3c2ncn3C2CCCCO2)c1 (stereo not drawn) [compound 91, 2-fluoro-6-(3-methoxyanilino)-9-(tetrahydropyran-2-yl)purine]	–	–	380 µM	induction of ARR5:GUS expression [4]: dose-dependent induction of ARR5:GUS expression; ability to activate cytokinin receptor CRE1/AHK4 [5]: do not activate any of the receptors; ability to activate cytokinin receptor AHK3 [6]: do not activate any of the receptors
O=C(Nc1ccccc1)Nc1cnns1 [thidiazuron, reference compound]	–	–	–	IC50 [3]: 55 µM
